# Measured values from ChEMBL document CHEMBL1201862, “PubChem BioAssay data set” (2004).
#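 Test compounds were applied to cells in 96-well plates for 48 hours at 5 doses. GI50 marks 50% less growth.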 Calls of active or inactive are those of the source. Cut-off read from the data, not from the text of the source: active = GI50 up to about 1.1 µM and inactive = higher.
# Assays:
# Experiment in all cases: NCI anticancer screen, dose series, 48 h
# OVCAR-8 = tested on: OVCAR-8
# A498 = tested on: A498
# 786-0 = tested on: 786-0
# MDA-N = tested on: MDA-N
# UACC-62 = tested on: UACC-62
# UO-31 = tested on: UO-31
# DU-145 = tested on: DU-145
# SNB-19 = tested on: SNB-19
# NCI/ADR-RES = tested on: NCI/ADR-RES
# NCI-H23 = tested on: NCI-H23
# OVCAR-4 = tested on: OVCAR-4
# KM12 = tested on: KM12
# LOX IMVI = tested on: LOX IMVI
# HOP-92 = tested on: HOP-92
# ACHN = tested on: ACHN
# SN12C = tested on: SN12C
# NCI-H226 = tested on: NCI-H226
# SR = tested on: SR
# SF-268 = tested on: SF-268
# RPMI-8226 = tested on: RPMI-8226
# HCT-15 = tested on: HCT-15
# CCRF-CEM = tested on: CCRF-CEM
# MDA-MB-231 = tested on: MDA-MB-231
# U-251 = tested on: U-251
# SK-MEL-28 = tested on: SK-MEL-28
# MDA-MB-435 = tested on: MDA-MB-435
# HCT-116 = tested on: HCT-116
# TK-10 = tested on: TK-10
# CAKI-1 = tested on: CAKI-1
# BT-549 = tested on: BT-549
# UACC-257 = tested on: UACC-257
# HCC 2998 = tested on: HCC 2998
# SNB-75 = tested on: SNB-75
# NCI-H460 = tested on: NCI-H460
# T47D = tested on: T47D
# COLO 205 = tested on: COLO 205
# IGROV-1 = tested on: IGROV-1
# OVCAR-3 = tested on: OVCAR-3
# SK-MEL-5 = tested on: SK-MEL-5
# HT-29 = tested on: HT-29
# K562 = tested on: K562
# OVCAR-5 = tested on: OVCAR-5
# A549 = tested on: A549
# HL-60 = tested on: HL-60
# HOP-62 = tested on: HOP-62
# SW-620 = tested on: SW-620
# Malme-3M = tested on: Malme-3M
# SK-OV-3 = tested on: SK-OV-3
# SF-295 = tested on: SF-295
# MCF7 = tested on: MCF7
# MOLT-4 = tested on: MOLT-4
# EKVX = tested on: EKVX
# SF-539 = tested on: SF-539
# RXF 393 = tested on: RXF 393
structure (smiles),measurement,setting,value
CC1(C)C(=O)C2(N)CCC1C2 (centres undefined),GI50,OVCAR-8,> 100 µM (inactive)
same,GI50,A498,> 10 µM (inactive)
same,GI50,786-0,> 100 µM (inactive)
same,GI50,MDA-N,> 100 µM (inactive)
same,GI50,UACC-62,> 100 µM (inactive)
same,GI50,UO-31,> 100 µM (inactive)
same,GI50,DU-145,> 100 µM (inactive)
same,GI50,SNB-19,> 100 µM (inactive)
same,GI50,NCI/ADR-RES,> 100 µM (inactive)
same,GI50,NCI-H23,> 100 µM (inactive)
same,GI50,OVCAR-4,> 100 µM (inactive)
same,GI50,KM12,> 100 µM (inactive)
same,GI50,LOX IMVI,> 100 µM (inactive)
same,GI50,HOP-92,> 100 µM (inactive)
same,GI50,ACHN,> 100 µM (inactive)
same,GI50,SN12C,> 100 µM (inactive)
same,GI50,NCI-H226,> 100 µM (inactive)
same,GI50,SR,> 100 µM (inactive)
same,GI50,SF-268,> 100 µM (inactive)
same,GI50,RPMI-8226,> 100 µM (inactive)
same,GI50,HCT-15,> 100 µM
same,GI50,CCRF-CEM,> 100 µM (inactive)
same,GI50,MDA-MB-231,> 100 µM (inactive)
same,GI50,U-251,> 100 µM (inactive)
same,GI50,SK-MEL-28,> 100 µM (inactive)
same,GI50,MDA-MB-435,> 100 µM (inactive)
same,GI50,HCT-116,> 100 µM (inactive)
same,GI50,TK-10,> 100 µM (inactive)
same,GI50,CAKI-1,> 100 µM (inactive)
same,GI50,BT-549,> 100 µM (inactive)
same,GI50,UACC-257,> 100 µM (inactive)
same,GI50,HCC 2998,> 100 µM (inactive)
same,GI50,SNB-75,> 100 µM (inactive)
same,GI50,NCI-H460,> 100 µM (inactive)
same,GI50,T47D,> 100 µM (inactive)
same,GI50,COLO 205,> 100 µM (inactive)
CN1CCN(Cc2ccccc2)CC1CC#N (centres undefined),GI50,IGROV-1,> 100 µM (inactive)
same,GI50,OVCAR-3,> 100 µM (inactive)
same,GI50,OVCAR-8,> 100 µM (inactive)
same,GI50,A498,> 100 µM (inactive)
same,GI50,786-0,> 100 µM (inactive)
same,GI50,SK-MEL-5,> 100 µM (inactive)
same,GI50,MDA-N,> 100 µM (inactive)
same,GI50,UACC-62,> 100 µM (inactive)
same,GI50,UO-31,> 100 µM (inactive)
same,GI50,DU-145,> 100 µM (inactive)
same,GI50,HT-29,> 100 µM (inactive)
same,GI50,SNB-19,> 100 µM (inactive)
same,GI50,NCI/ADR-RES,> 100 µM (inactive)
same,GI50,K562,> 100 µM (inactive)
same,GI50,NCI-H23,> 100 µM (inactive)
same,GI50,OVCAR-5,> 100 µM (inactive)
same,GI50,OVCAR-4,> 100 µM (inactive)
same,GI50,KM12,> 100 µM (inactive)
same,GI50,LOX IMVI,> 100 µM (inactive)
same,GI50,A549,> 100 µM (inactive)
same,GI50,ACHN,> 100 µM (inactive)
same,GI50,SN12C,> 100 µM (inactive)
same,GI50,NCI-H226,> 100 µM (inactive)
same,GI50,SR,> 100 µM (inactive)
same,GI50,SF-268,> 100 µM (inactive)
same,GI50,HL-60,> 100 µM (inactive)
same,GI50,RPMI-8226,> 100 µM (inactive)
same,GI50,HOP-62,> 100 µM (inactive)
same,GI50,SW-620,> 100 µM (inactive)
same,GI50,Malme-3M,> 100 µM (inactive)
same,GI50,HCT-15,> 100 µM
same,GI50,CCRF-CEM,> 100 µM (inactive)
same,GI50,MDA-MB-231,> 100 µM (inactive)
same,GI50,U-251,> 100 µM (inactive)
same,GI50,SK-MEL-28,> 100 µM (inactive)
same,GI50,SK-OV-3,> 100 µM (inactive)
same,GI50,SF-295,> 100 µM (inactive)
same,GI50,MDA-MB-435,> 100 µM (inactive)
same,GI50,HCT-116,> 100 µM (inactive)
same,GI50,TK-10,> 100 µM (inactive)
same,GI50,CAKI-1,> 100 µM (inactive)
same,GI50,MCF7,> 100 µM (inactive)
same,GI50,BT-549,> 100 µM (inactive)
same,GI50,UACC-257,> 100 µM (inactive)
same,GI50,HCC 2998,> 100 µM (inactive)
same,GI50,MOLT-4,> 100 µM (inactive)
same,GI50,SNB-75,> 100 µM (inactive)
same,GI50,EKVX,> 100 µM (inactive)
same,GI50,NCI-H460,> 100 µM (inactive)
same,GI50,SF-539,> 100 µM (inactive)
same,GI50,RXF 393,> 100 µM (inactive)
same,GI50,T47D,> 100 µM (inactive)
same,GI50,COLO 205,> 100 µM (inactive)
